Experimental data: patent US6569461B1, “Dihydroxy open-acid and salts of HMG-CoA reductase inhibitors” (Merck & Co., Inc., priority 1999, dated 2003)

Legend:
[1] = human, in vivo
Procedure: (§1) Intraduodenal administration was accomplished via a nasoduodenal tube placed under fluoroscopic guidance by an experienced gastroenterologist just prior to dosing and removed following the 1-hr postdose measurements.
(§2) All calculations were based on designated sampling times or actual sampling times when they differed from the designated times by more than 10 minutes.

[2] = Plasma total and active HMG-CoA reductase inhibitory activity (enzymatic assay) in open, randomized, four-period crossover study with or without itraconazole; conditions: human, in vivo
Procedure: as §1, §2

With CCC(C)(C)C(=O)O[C@H]1C[C@@H](C)C=C2C=C[C@H](C)[C@H](CC[C@@H](O)C[C@@H](O)CC(=O)O)[C@H]21 [SVA, dihydroxy open acid simvastatin] the “effect of itraconazole on apparent t1/2 values” [1] was “essentially unchanged”, the “effect of itraconazole measured as the unchanged drug” value ([1]; male) was 1.5 fold and the “AUC, Active Inhibitors” value [2] was 54.1 ± 28.5 ng eq·hr/mL. The “Cmax, Active Inhibitors” value [2] was 5.7 ± 3.0 ng eq/mL and the “change by itraconazole pretreatment in AUC and Cmax of HMG-CoA reductase inhibitory activity (total or active)” value ([2]; male) was 1.3-1.5 fold.
